Marks after values point to notes of the source that are not given here.
Experiments:
plasmin/α2-antiplasmin = experiment: Plasmin activity by fibrinogen zymography of plasma, mouse cerebral infarction model; format: in vivo; settings: 10 mg/kg 1 hour after ischemia, mean ± SE, n=6
Method: The quantity of plasmin/α2-antiplasmin in plasma was measured by a fibrinogen zymography method for evaluating the plasmin activity, when a triprenyl phenol compound was administered to a mouse cerebral infarction model. As triprenyl phenol compounds, SMTP-7, SMTP-6, SMTP-22, SMTP-25, SMTP-43, and SMTP-44D were used.
The triprenyl phenol compounds were prepared same as in Example 2 and Example 5. The administration of 10 mg/kg of a triprenyl phenol compound was initiated 1 hour after the initiation of ischemia. The administration method was same as Example 3. Six mice were used for each condition.
A blood sample was taken according to the following method at 3 time points, namely after the completion of the administration 0 hour (immediately after the completion), 1 hour, and 3 hours. Under anesthesia with 1 to 1.5% isoflurane, the […] and 90 μL of blood was withdrawn from the abdominal vena cava into a syringe containing 10 μL of sodium citrate (3.8%) (sodium citrate:blood=1:9, final concentration of sodium citrate 0.38%).
After collection the blood was centrifuged (5000 rpm, 15 min, 4° C.) to separate plasma. A part of the plasma was mixed with equal quantity of a sample buffer (125 mM Tris-HCl (pH 6.8), 4% (w/v) SDS, 0.04% (w/v) bromophenol blue, 20% (w/v) sucrose), which was then divided into small fractions, and cryopreserved.
A part of the plasma was reserved and diluted 300-fold with 0.1 N NaOH and the protein content was determined by the Bradford method in order to even out the protein mass to be applied to an electrophoresis gel.
As the standard sample, a sample was prepared by reacting 10 μL of 120 nM plasmin (by SIGMA) and 10 μL of 600 nM α2-antiplasmin (by Wako Pure Chemical Industries, Ltd.) at 37° C. for 30 min, and mixing the same with 20 μL of the sample buffer.
An electrophoresis gel was prepared by overlaying a stacking gel on a 7.5% running gel containing 2 mg/mL fibrinogen (by SIGMA). Based on the determined protein mass, 3 to 15 μL of the sample was applied, so that the equal amount of protein was applied.
After electrophoresis at 10 mA/sheet, for 3 hours the stacking gel was removed and rinsed for 30 min twice with about 100 mL/gel of a rinse liquid (2.5% Triton X-100). After rinsing, incubation was carried out at 37° C. for 24 to 60 hours under gentle shaking with about 100 mL/sheet of an incubation buffer (0.1 M glycine-50 mM Tris-HCl, pH 8.3 at 37° C.).
Thereafter the gel was stained by a stain solution (0.075% CBB 8250, 22.5% methanol, 2.25% sulfosalicylic acid dihydrate, 7.5% trichloroacetic acid) at room temperature for 15 to 30 min with gentle shaking. Removing the stain solution, the gel was decolored by a decoloring solution (methanol:acetic acid:water=1:1:6), which was replaced with water at an appropriate time point according to appearance of bands observed.
The image on the gel was read in by an imaging analyzer (Printgraph (AE-6933FXCF), by ATTO) and the band intensity was evaluated. The results are expressed as a ratio to the value of the control group at 0 hour after the completion of the administration (immediately after the completion).

[1] = test system: crab-eating monkey cerebral infarction model; experiment: Crab-eating monkey cerebral infarction model (thrombotic middle cerebral artery occlusion); format: in vivo; settings: mean ± S.D.
Method: A reducing effect of a cerebral infarction size and an improving effect of a neurological symptom of SMTP-7 in a crab-eating monkey cerebral infarction model were studied according to the following testing method.
SMTP-7 administration group: 10 mg/kg, 2 to 3 year old male crab-eating monkeys, 6 monkeys
Administration method of test substance: The administration volume was set at 10 mL/kg. A Surflo indwelling needle was indwelled in the left saphenous vein, 1 mg/kg (1 mL/kg) was administered 1 hour after ischemia as a bolus over 5 sec, then 9 mg/kg (9 mL/kg) was administered continuously over 30 min using a syringe pump.
Preparation of administration liquid: SMTP-7 was dissolved in a physiological saline solution at 1 mg/mL. More particularly, to 70.0 mg of a SMTP-7 sodium salt (containing 63.1 mg of SMTP-7) was added 63.1 mL of a physiological saline solution, and the liquid was stirred by a magnetic stirrer under heating in a hot-water bath (37° C.) for dissolution. An ultrasonic treatment was conducted according to need. After dissolution the liquid was subjected to filter sterilization by a sterile filter (0.22 μm, made of cellulose acetate). The administration liquid was prepared before using. After the preparation it was kept in a 37° C. hot-water bath until immediately before the use, and the administration was finished within 4 hours after the preparation.
The treatment of cerebral infarction was conducted according to the standard experimental protocol (SPHPR710-15A). More particularly, after extirpating the right eyeball, the eyeground bone outside the optic nerve exit was removed by a dental drill to expose the dura mater. The dura mater was carefully detached to identify the middle cerebral artery. The origin part of the middle cerebral artery was separated from the arachnoid mater and a light irradiation probe for generating a thrombus was fixed on the middle cerebral artery. At the distal end of the probe a probe of a pulse Doppler blood flowmeter (Crystal Bio, PDV-20) was placed. An intravenous administration of rose bengal (Wako Pure Chemical Industries, Ltd.) (20 mg/kg) over 6 min was initiated and an irradiation with green light with the wavelength of 540 nm (1.40 million LUX) was conducted for 20 min to block the middle cerebral artery by a thrombus. The initiation time of the light irradiation and the administration of the rose Bengal was defined as the initiation time of ischemia. The middle cerebral artery blood flow was measured by the pulse Doppler blood flowmeter continuously for 2 hours from the initiation time of the light irradiation and then the incision was closed. A series of procedures were carried out completely under an operating microscope to minimize intraoperative hemorrhage to the utmost. Further, the rectal temperature of an animal under operation was monitored, and the animal was kept warmed by a heating pad, so as to maintain the body temperature of the animal in a physiological range (37.0 to 38.5° C.).
Neurological symptoms as described below were observed 24 hours after ischemia according to J. Neurosci. Meth., 2001; 105: 45-53.
After the neurological symptom observation 24 hours after the operation, a euthanasia treatment was conducted by means of a megadose of pentobarbital and the brain was extirpated. Six mm-thick coronal slices were prepared and photographed for quantitative determination of a hemorrhagic infarction. Thereafter, the infarction area was stained in a 2% TTC solution and photographs were taken for quantitative determination of an infarction size. For evaluations of the hemorrhagic infarction and the infarction area, the occipital lobe side of each slice was used.
Photographs of an individual were converted to TIF images and hemorrhagic infarction areas and the respective infarction areas were marked by Photoshop 7.0 (Adobe), which sizes were then measured by Scion Image 0.4.0.3 (Scion Corporation). […]

[2] = plasma 0 hr after completion of administration
[3] = plasma 1 hr after completion of administration
[4] = plasma 3 hr after completion of administration
[5] = 10 mg/kg i.v. 1 hour after ischemia, 24 hours after ischemia

CC(C)=CCC/C(C)=C/CC[C@@]1(C)Oc2c(c(O)cc3c2CN(CCC[C@@H](C(=O)O)N2Cc4c(cc(O)c5c4O[C@](C)(CC/C=C(\C)CCC=C(C)C)[C@@H](O)C5)C2=O)C3=O)C[C@@H]1O [SMTP-7]
plasmin activity (plasmin/α2-antiplasmin band intensity), ratio to control group at 0 hour (plasmin/α2-antiplasmin; [2]): 1.49 ± 0.13 | plasmin activity (plasmin/α2-antiplasmin band intensity), ratio to control group at 0 hour (plasmin/α2-antiplasmin; [3]): 3.23 ± 0.47 | plasmin activity (plasmin/α2-antiplasmin band intensity), ratio to control group at 0 hour (plasmin/α2-antiplasmin; [4]): 3.27 ± 0.67 | Occlusion Time ([1]; 0~60 min after ischemia (before administration), 10 mg/kg i.v.): 45.5 ± 3.8 min | Hemorrhagic infarction area size [1, 5]: 14.1 ± 7.4 (P < 0.05) mm^2 | cerebral infarction size: Basal ganglion [1, 5]: 1419.7 ± 633.8* mm^3 | cerebral infarction size: Cerebral cortex [1, 5]: 237.8 ± 198.8 mm^3 | cerebral infarction size: Total [1, 5]: 1745.1 ± 749.5* mm^3 | cerebral infarction size: White matter [1, 5]: 87.7 ± 71.8 mm^3 | neurological symptom score: Consciousness [1, 5]: 7.7 ± 2.0 | neurological symptom score: Motor system [1, 5]: 10.7 ± 2.7 | neurological symptom score: Sensory system [1, 5]: 7.5 ± 1.6 | neurological symptom score: Skeletal muscle coordination system [1, 5]: 5.3 ± 2.4 | neurological symptom score: Total [1, 5]: 31.2 ± 7.9 | Total Occlusion Time ([1]; 10 mg/kg i.v. 1 hour after ischemia, measured for 2 hours, 6 monkeys): 86.8 ± 18.8 min | Time to Occlusion ([1]; 10 mg/kg i.v. 1 hour after ischemia, middle cerebral artery blood flow, 6 monkeys): 6.9 ± 2.5 min | Occlusion Time ([1]; 60~120 min after ischemia, 10 mg/kg i.v. 1 hour after ischemia): 41.3 ± 18.9 min

CC(C)=CCC/C(C)=C/CCC1(C)Oc2c(c(O)cc3c2CN(C(Cc2c[nH]c4ccccc24)C(=O)O)C3=O)CC1O (centres unmarked) [SMTP-6]
plasmin activity (plasmin/α2-antiplasmin band intensity), ratio to control group at 0 hour (plasmin/α2-antiplasmin; [2]): 1.08 ± 0.12 | plasmin activity (plasmin/α2-antiplasmin band intensity), ratio to control group at 0 hour (plasmin/α2-antiplasmin; [3]): 1.17 ± 0.14 | plasmin activity (plasmin/α2-antiplasmin band intensity), ratio to control group at 0 hour (plasmin/α2-antiplasmin; [4]): 1.68 ± 0.10

— patent USRE49351E1, “Cytoprotective agent” (Biogen MA Inc., priority 2009, dated 2023)
